Reference: ChEMBL document CHEMBL4219261, “Discovery of 3(S)-thiomethyl pyrrolidine ERK inhibitors for oncology” (Bioorg Med Chem Lett, 2018)
One block for each molecule: values may come before it.

Key:
[1] = Oral bioavailability in rat at 10 mg/kg; assay type: ADME, organism-based; settings: in vivo
[2] = system: HT-29; test: Antiproliferative activity against human HT-29 cells harboring BRAF/KRAS mutant; assay type: functional, cell-based
[3] = target: T1, Cytochrome P450 3A4 (Homo sapiens, UniProt P08684); test: Inhibition of CYP3A4 (unknown origin) under co-incubation condition; assay type: ADME
[4] = target: hERG (KCNH2) (Homo sapiens, UniProt Q12809); test: Inhibition of human ERG at […] by Rb efflux assay
[5] = Apparent permeability in human Caco2 cells […]; assay type: ADME, cell-based; settings: Caco-2
[6] = Oral bioavailability in rat at or 10 mg/kg; assay type: ADME, organism-based; settings: in vivo
[7] = target: T1, Cytochrome P450 3A4; test: Inhibition of CYP3A4 (unknown origin) under pre-incubation condition; assay type: ADME
[8] = system: HT-29; test: Induction of apoptosis in human HT-29 cells harboring BRAF/KRAS mutant by caspase activation assay; assay type: functional, cell-based
[9] = target: Mitogen-activated protein kinase 1 (Homo sapiens, UniProt P28482); test: Inhibition of ERK2 (unknown origin)
[10] = AUC in rat at 10 mg/kg; assay type: ADME, organism-based; settings: in vivo
[11] = Clearance in dog hepatocytes assessed per million cells; assay type: ADME, cell-based, Canis lupus familiaris, Hepatocyte
[12] = Clearance in human hepatocytes assessed per million cells; assay type: ADME, cell-based, Hepatocyte
[13] = AUC in dog at 10 mg/kg, po; assay type: ADME, organism-based, Canis lupus familiaris; settings: in vivo
[14] = Total plasma clearance in rat at 3 mg/kg, iv or 10 mg/kg, po; assay type: ADME, organism-based
[15] = Half life in rat at 3 mg/kg, iv or 10 mg/kg, po; assay type: ADME, organism-based; settings: in vivo
[16] = MRT in rat at 3 mg/kg, iv or 10 mg/kg, po; assay type: ADME, organism-based; settings: in vivo
[17] = Total plasma clearance in dog at 2 mg/kg, iv or 2 mg/kg dosed via portal vein infusion or 10 mg/kg, po; assay type: ADME, organism-based, Canis lupus familiaris
[18] = Half life in dog at 2 mg/kg, iv or 2 mg/kg dosed via portal vein infusion or 10 mg/kg, po; assay type: ADME, organism-based, Canis lupus familiaris; settings: in vivo
[19] = MRT in dog at 2 mg/kg, iv or 2 mg/kg dosed via portal vein infusion or 10 mg/kg, po; assay type: ADME, organism-based, Canis lupus familiaris; settings: in vivo
[20] = Oral bioavailability in dog at 10 mg/kg; assay type: ADME, organism-based, Canis lupus familiaris; settings: in vivo
[21] = Drug metabolism in rat cryopreserved hepatocytes assessed as (R)-1-(2-oxo-2-(4-(4-(pyrimidin-2-yl)phenyl)piperazin-1-yl)ethyl)pyrrolidine-3-carboxylic acid formation at 10 uM up to 4 hrs by LC-ESI/MS/MS analysis; assay type: ADME, cell-based, Hepatocyte
[22] = Drug metabolism in rat cryopreserved hepatocytes assessed as N-(3-(4-fluorophenyl)-1H-indazol-5-yl)acetamide formation at 10 uM up to 4 hrs by LC-ESI/MS/MS analysis; assay type: ADME, cell-based, Hepatocyte
[23] = Drug metabolism in human cryopreserved hepatocytes assessed as (R)-1-(2-oxo-2-(4-(4-(pyrimidin-2-yl)phenyl)piperazin-1-yl)ethyl)pyrrolidine-3-carboxylic acid formation at 1 uCi/ml up to 4 hrs by LC-ESI/MS/MS analysis; assay type: ADME, cell-based, Hepatocyte
[24] = Drug metabolism in human cryopreserved hepatocytes assessed as N-(3-(4-fluorophenyl)-1H-indazol-5-yl)acetamide formation at 1 uCi/ml up to 4 hrs by LC-ESI/MS/MS analysis; assay type: ADME, cell-based, Hepatocyte
[25] = Drug metabolism in rat bile assessed as amide hydrolysis followed by glucuronidation level 10 mg/kg, iv measured during 0 to 8 hrs post dose by LC-ESI/MS/MS analysis; assay type: ADME, organism-based; settings: in vivo
[26] = Drug metabolism in rat bile assessed as amide hydrolysis followed by glucuronidation level 10 mg/kg, iv measured during 8 to 24 hrs post dose by LC-ESI/MS/MS analysis; assay type: ADME, organism-based; settings: in vivo
[27] = Drug metabolism in rat urine assessed as amide hydrolysis followed by glucuronidation level 10 mg/kg, iv measured during 0 to 8 hrs post dose by LC-ESI/MS/MS analysis; assay type: ADME, organism-based; settings: in vivo
[28] = Drug metabolism in rat urine assessed as amide hydrolysis followed by glucuronidation level 10 mg/kg, iv measured during 8 to 24 hrs post dose by LC-ESI/MS/MS analysis; assay type: ADME, organism-based; settings: in vivo
[29] = Drug level in rat cryopreserved hepatocytes treated with (R)-N-(3-(4-fluorophenyl)-1H-indazol-5-yl)-1-(2-oxo-2-(4-(4-(pyrimidin-2-yl)phenyl)piperazin-1-yl)ethyl)pyrrolidine-3-carboxamide at 10 uM up to 4 hrs by LC-ESI/MS/MS analysis; assay type: ADME, cell-based, Hepatocyte
[30] = Drug level in human cryopreserved hepatocytes treated with [3H]8 at 1 uCi/ml up to 4 hrs by LC-ESI/MS/MS analysis; assay type: ADME, cell-based, Hepatocyte

Sequence of hERG (KCNH2) (Q12809 whole entry): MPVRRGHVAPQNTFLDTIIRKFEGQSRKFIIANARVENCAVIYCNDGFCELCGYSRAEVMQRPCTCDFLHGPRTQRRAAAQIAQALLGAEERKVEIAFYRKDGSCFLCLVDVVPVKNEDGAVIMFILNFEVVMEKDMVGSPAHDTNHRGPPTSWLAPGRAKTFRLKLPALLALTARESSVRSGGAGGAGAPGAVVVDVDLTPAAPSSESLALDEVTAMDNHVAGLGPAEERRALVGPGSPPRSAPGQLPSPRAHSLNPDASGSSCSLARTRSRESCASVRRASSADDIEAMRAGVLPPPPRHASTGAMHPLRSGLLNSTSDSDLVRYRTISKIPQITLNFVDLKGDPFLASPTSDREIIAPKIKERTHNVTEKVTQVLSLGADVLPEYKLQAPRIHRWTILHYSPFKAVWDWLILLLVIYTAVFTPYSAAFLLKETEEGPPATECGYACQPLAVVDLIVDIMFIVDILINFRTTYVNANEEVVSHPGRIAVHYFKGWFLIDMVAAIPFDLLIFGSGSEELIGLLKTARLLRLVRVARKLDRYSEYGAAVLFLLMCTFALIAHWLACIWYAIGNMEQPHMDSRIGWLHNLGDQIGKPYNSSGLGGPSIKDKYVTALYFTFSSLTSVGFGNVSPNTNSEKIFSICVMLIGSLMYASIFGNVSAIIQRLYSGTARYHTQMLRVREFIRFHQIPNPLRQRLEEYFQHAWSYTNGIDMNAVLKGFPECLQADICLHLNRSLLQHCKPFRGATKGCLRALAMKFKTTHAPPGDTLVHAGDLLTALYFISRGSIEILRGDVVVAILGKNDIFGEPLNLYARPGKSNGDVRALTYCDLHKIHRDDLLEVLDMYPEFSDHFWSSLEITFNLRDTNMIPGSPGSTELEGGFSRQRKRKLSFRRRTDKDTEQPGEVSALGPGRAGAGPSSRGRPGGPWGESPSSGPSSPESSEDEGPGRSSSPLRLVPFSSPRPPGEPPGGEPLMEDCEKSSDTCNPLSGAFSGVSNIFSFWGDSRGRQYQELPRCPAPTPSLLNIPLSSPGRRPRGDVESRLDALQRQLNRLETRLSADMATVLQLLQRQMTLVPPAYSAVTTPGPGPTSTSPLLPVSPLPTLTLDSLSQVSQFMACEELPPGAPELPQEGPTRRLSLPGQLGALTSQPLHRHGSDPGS
Sequence of Mitogen-activated protein kinase 1 (P28482 whole entry): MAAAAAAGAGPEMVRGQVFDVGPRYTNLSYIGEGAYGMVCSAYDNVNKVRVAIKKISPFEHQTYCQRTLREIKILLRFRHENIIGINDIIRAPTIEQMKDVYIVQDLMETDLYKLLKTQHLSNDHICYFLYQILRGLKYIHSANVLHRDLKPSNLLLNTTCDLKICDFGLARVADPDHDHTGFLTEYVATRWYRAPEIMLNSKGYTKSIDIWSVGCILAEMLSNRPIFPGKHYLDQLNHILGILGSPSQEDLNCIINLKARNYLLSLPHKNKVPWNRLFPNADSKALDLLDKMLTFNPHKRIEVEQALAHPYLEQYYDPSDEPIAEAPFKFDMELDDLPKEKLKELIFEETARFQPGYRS
T1 sequence (P08684 whole entry): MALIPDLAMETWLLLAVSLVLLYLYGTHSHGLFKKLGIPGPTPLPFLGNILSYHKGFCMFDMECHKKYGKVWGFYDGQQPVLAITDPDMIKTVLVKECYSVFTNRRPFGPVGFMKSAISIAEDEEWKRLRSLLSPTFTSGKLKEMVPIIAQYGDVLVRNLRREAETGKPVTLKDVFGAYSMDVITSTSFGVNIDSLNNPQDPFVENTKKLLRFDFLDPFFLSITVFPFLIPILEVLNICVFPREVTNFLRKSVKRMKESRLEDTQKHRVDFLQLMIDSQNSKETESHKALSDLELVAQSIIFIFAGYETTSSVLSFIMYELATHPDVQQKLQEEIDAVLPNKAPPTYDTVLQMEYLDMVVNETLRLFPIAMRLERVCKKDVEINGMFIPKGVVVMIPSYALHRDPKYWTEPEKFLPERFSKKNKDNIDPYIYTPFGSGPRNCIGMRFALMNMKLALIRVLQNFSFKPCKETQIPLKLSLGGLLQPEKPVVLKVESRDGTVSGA

SMILES: O=C(Nc1ccc2[nH]nc(-c3ccncc3)c2c1)[C@@H]1CCN(CC(=O)N2CCN(c3ccc(-c4ncccn4)cc3)CC2)C1
bioavailability [1]: 0%
IC50 [2]: 59 nM
IC50 [3]: 7800 nM
inhibition at […] [4]: 12%
Papp [5]: 4 ×10⁻⁶ cm/s
bioavailability [6]: 0%
IC50 [7]: 5700 nM
IC50 [8]: 96 nM

SMILES: CS[C@@]1(C(=O)Nc2ccc3[nH]nc(-c4ccc(F)cc4)c3c2)CCN(CC(=O)N2CC=C(c3ccc(-c4ncccn4)cc3)CC2)C1
IC50 [9]: 7 nM
IC50 [3]: > 30000 nM
inhibition at […] [4]: 8%
CLH [11]: 18 µL/min/1e6 cells
CLH [12]: 7 µL/min/1e6 cells
Papp [5]: 60 ×10⁻⁶ cm/s
clearance [14]: 8.4 mL/min/kg
half-life [15]: 2.5 h
MRT [16]: 2.5 h
bioavailability [6]: 70%
AUC [13]: 17.2 µM·h
clearance [17]: 7.6 mL/min/kg
half-life [18]: 2 h
MRT [19]: 5.1 h
bioavailability [20]: 75%
IC50 [7]: 2000 nM
IC50 [8]: 80 nM

SMILES: O=C(Nc1ccc2[nH]nc(-c3ccc(F)cc3)c2c1)[C@@H]1CCN(CC(=O)N2CC=C(c3ccc(-c4ncccn4)cc3)CC2)C1
IC50 [9]: 15.5 nM

SMILES: O=C(CN1CC[C@@H](CNc2ccc3[nH]nc(-c4ccc(F)cc4)c3c2)C1)N1CCN(c2ccc(-c3ncccn3)cc2)CC1
IC50 [9]: 960 nM

SMILES: CC(=O)Nc1ccc2[nH]nc(-c3ccc(F)cc3)c2c1
Drug metabolism [29]: Metabolite_Detected
Drug metabolism [30]: Metabolite_Detected

SMILES: CC(C)O[C@@]1(C(=O)Nc2ccc3[nH]nc(-c4ccc(F)cc4)c3c2)CCN(CC(=O)N2CCN(c3ccc(-c4ncccn4)cc3)CC2)C1
IC50 [9]: 90 nM

SMILES: CC(=O)N(C[C@@H]1CCN(CC(=O)N2CCN(c3ccc(-c4ncccn4)cc3)CC2)C1)c1ccc2[nH]nc(-c3ccc(F)cc3)c2c1
IC50 [9]: 574 nM

SMILES: O=C(Nc1ccc2[nH]nc(-c3ccc(F)cc3)c2c1)C1CN(CC(=O)N2CC=C(c3ccc(-c4ncccn4)cc3)CC2)CCS1 (stereo not drawn)
IC50 [9]: 1310 nM

SMILES: CS(=O)(=O)[C@@]1(C(=O)Nc2ccc3[nH]nc(-c4ccc(F)cc4)c3c2)CCN(CC(=O)N2CC=C(c3ccc(-c4ncccn4)cc3)CC2)C1
IC50 [9]: 12 nM

SMILES: C[C@@]1(C(=O)Nc2ccc3[nH]nc(-c4ccc(F)cc4)c3c2)CCN(CC(=O)N2CCN(c3ccc(-c4ncccn4)cc3)CC2)C1
IC50 [9]: 24 nM

SMILES: O=C(Nc1ccc2[nH]nc(-c3ccc(F)cc3)c2c1)C1CN(CC(=O)N2CC=C(c3ccc(-c4ncccn4)cc3)CC2)CCO1 (stereo not drawn)
IC50 [9]: 119 nM

The next lines start with results.

IC50 [9]: 41 nM
SMILES: COC[C@@]1(C(=O)Nc2ccc3[nH]nc(-c4ccc(F)cc4)c3c2)CCN(CC(=O)N2CC=C(c3ccc(-c4ncccn4)cc3)CC2)C1

AUC [10]: 1.88 µM·h
IC50 [9]: 4.8 nM
IC50 [2]: 88 nM
IC50 [3]: 31000 nM
CLH [11]: 36 µL/min/1e6 cells
CLH [12]: 33 µL/min/1e6 cells
AUC [13]: 4.53 µM·h
IC50 [7]: 2200 nM
IC50 [8]: 79 nM
SMILES: CO[C@@]1(C(=O)Nc2ccc3[nH]nc(-c4ccc(F)cc4)c3c2)CCN(CC(=O)N2CC=C(c3ccc(-c4ncccn4)cc3)CC2)C1
inhibition at […] [4]: 56%

IC50 [9]: 2.1 nM
SMILES: CO[C@@]1(C(=O)Nc2ccc3[nH]nc(-c4ccc(F)cc4)c3c2)CCN(CC(=O)N2CCN(c3ccc(-c4ncccn4)cc3)CC2)C1

IC50 [9]: 5.6 nM
SMILES: CS[C@@]1(C(=O)Nc2ccc3[nH]nc(-c4ccc(F)cc4)c3c2)CCN(CC(=O)N2CCN(c3ccc(-c4ncccn4)cc3)CC2)C1

Drug metabolism [21]: Metabolite_Detected
Drug metabolism [22]: Metabolite_Detected
Drug metabolism [23]: Metabolite_Detected
Drug metabolism [24]: Metabolite_Detected
Drug metabolism [25]: Metabolite_Detected
Drug metabolism [26]: Metabolite_Detected
Drug metabolism [27]: Metabolite_Detected
Drug metabolism [28]: Metabolite_Detected
SMILES: [3H]c1cc(N2CCN(C(=O)CN3CC[C@@H](C(=O)Nc4ccc5[nH]nc(-c6c([3H])cc(F)cc6[3H])c5c4)C3)CC2)cc([3H])c1-c1ncccn1

IC50 [9]: > 3000 nM
SMILES: O=C(CN1CCC(Oc2ccccc2)(C(=O)Nc2ccc3[nH]nc(-c4ccc(F)cc4)c3c2)C1)N1CCN(c2ccc(-c3ncccn3)cc2)CC1 (stereo not drawn)

Drug metabolism [29]: Metabolite_Detected
Drug metabolism [30]: Metabolite_Detected
SMILES: O=C(O)[C@@H]1CCN(CC(=O)N2CCN(c3ccc(-c4ncccn4)cc3)CC2)C1

IC50 [9]: 5.8 nM
SMILES: O=C(CN1CCC(CF)(C(=O)Nc2ccc3[nH]nc(-c4ccc(F)cc4)c3c2)C1)N1CCN(c2ccc(-c3ncccn3)cc2)CC1 (stereo not drawn)

IC50 [9]: 5.5 nM
SMILES: O=C(Nc1ccc2[nH]nc(-c3ccc(F)cc3)c2c1)[C@@H]1CCN(CC(=O)N2CCN(c3ccc(-c4ncccn4)cc3)CC2)C1

IC50 [9]: 9.7 nM
SMILES: CCO[C@@]1(C(=O)Nc2ccc3[nH]nc(-c4ccc(F)cc4)c3c2)CCN(CC(=O)N2CCN(c3ccc(-c4ncccn4)cc3)CC2)C1

IC50 [9]: > 3000 nM
SMILES: CS[C@]1(C(=O)Nc2ccc3[nH]nc(-c4ccc(F)cc4)c3c2)CCN(CC(=O)N2CC=C(c3ccc(-c4ncccn4)cc3)CC2)C1

IC50 [9]: 115 nM
SMILES: CC[C@@]1(C(=O)Nc2ccc3[nH]nc(-c4ccc(F)cc4)c3c2)CCN(CC(=O)N2CC=C(c3ccc(-c4ncccn4)cc3)CC2)C1

IC50 [9]: 21 nM
SMILES: CN(C)C1(C(=O)Nc2ccc3[nH]nc(-c4ccc(F)cc4)c3c2)CCN(CC(=O)N2CC=C(c3ccc(-c4ncccn4)cc3)CC2)C1 (stereo not drawn)

IC50 [9]: 25 nM
SMILES: COC[C@@]1(C(=O)Nc2ccc3[nH]nc(-c4ccc(F)cc4)c3c2)CCN(CC(=O)N2CCN(c3ccc(-c4ncccn4)cc3)CC2)C1

IC50 [9]: > 1000 nM
SMILES: O=C(CN1CCCC(c2cn(-c3ccc4[nH]nc(-c5ccc(F)cc5)c4c3)nn2)C1)N1CC=C(c2ccc(-c3ncccn3)cc2)CC1 (stereo not drawn)

IC50 [9]: 14 nM
SMILES: O=C(CN1CC[C@@](CO)(C(=O)Nc2ccc3[nH]nc(-c4ccc(F)cc4)c3c2)C1)N1CC=C(c2ccc(-c3ncccn3)cc2)CC1
